Results: the CheMixHub ionic liquid set
± gives the uncertainty stated by the source.

Test: xn = mol fraction of the nth substance listed

CCCCC[N+](CCCCC)(CCCCC)CCCCC.[Br-] + CCCCCCCCCCCC[N+](C)(C)C.[Br-] + O
viscosity [mPa·s], 100 kPa
Conditions | x2 = 5.425e-05, x1 = 0.0001802 | x2 = 0.0001085, x1 = 0.0001801 | x2 = 0.0001627, x1 = 0.0001801 | x2 = 0.000217, x1 = 0.0001801 | x2 = 0.0002712, x1 = 0.0001801 | x2 = 0.0003254, x1 = 0.0001801 | x2 = 0.0003796, x1 = 0.0001801 | x2 = 0.0004339, x1 = 0.0001801 | x2 = 0.0004881, x1 = 0.0001801 | x2 = 0.0005422, x1 = 0.0001801
293.15 K | 1.057 ± 0.027 | 1.059 ± 0.027 | 1.06 ± 0.027 | 1.061 ± 0.027 | 1.062 ± 0.027 | 1.062 ± 0.027 | 1.063 ± 0.027 | 1.063 ± 0.027 | 1.063 ± 0.027 | 1.064 ± 0.027
298.15 K | 0.943 ± 0.027 | 0.944 ± 0.027 | 0.945 ± 0.027 | 0.946 ± 0.027 | 0.948 ± 0.027 | 0.949 ± 0.027 | 0.95 ± 0.027 | 0.951 ± 0.027 | 0.951 ± 0.027 | 0.953 ± 0.027
303.15 K | 0.825 ± 0.027 | 0.826 ± 0.027 | 0.826 ± 0.027 | 0.827 ± 0.027 | 0.827 ± 0.027 | 0.827 ± 0.027 | 0.828 ± 0.027 | 0.828 ± 0.027 | 0.828 ± 0.027 | 0.829 ± 0.027
308.15 K | 0.745 ± 0.027 | 0.746 ± 0.027 | 0.746 ± 0.027 | 0.746 ± 0.027 | 0.747 ± 0.027 | 0.747 ± 0.027 | 0.747 ± 0.027 | 0.748 ± 0.027 | 0.748 ± 0.027 | 0.749 ± 0.027
313.15 K | 0.679 ± 0.027 | 0.68 ± 0.027 | 0.681 ± 0.027 | 0.681 ± 0.027 | 0.682 ± 0.027 | 0.682 ± 0.027 | 0.682 ± 0.027 | 0.682 ± 0.027 | 0.683 ± 0.027 | 0.683 ± 0.027
318.15 K | 0.624 ± 0.026 | 0.625 ± 0.026 | 0.625 ± 0.026 | 0.625 ± 0.026 | 0.626 ± 0.026 | 0.626 ± 0.026 | 0.626 ± 0.026 | 0.626 ± 0.026 | 0.626 ± 0.026 | 0.627 ± 0.026

OCC(O)CO + CCCCCCCCCCCC[P+](CC)(CC)CC.N#Cc1ccc[n-]1
100 kPa, x2 = 0
Conditions | viscosity [mPa·s]
293.15 K | 1360 ± 210
298.15 K | 860 ± 130
303.15 K | 542 ± 80
313.15 K | 217 ± 32

II + CCCCCCCCCCCC[n+]1ccn(C)c1.[I-]
Conditions | electrical conductivity [S/m]
298 K, 101.3 kPa, x2 = 0.2 | 2.02 ± 0.2

CCCCOC(C)=O + CCCCCCCCn1cc[n+](C)c1.F[B-](F)(F)F
Conditions | viscosity [mPa·s]
298.15 K, 101 kPa, x1 = 1 | 0.7 ± 0.01

[Br-].[Li+] + CCCCCCCCn1cc[n+](C)c1.N#C[S-] + CN1CCCC1=O
298.15 K, 101 kPa
Conditions | viscosity [mPa·s]
x2 = 0, x1 = 0.02595 | 2.385 ± 0.029
x2 = 0, x1 = 0.05088 | 3.13 ± 0.037
x2 = 0, x1 = 0.07505 | 4.349 ± 0.05

CCCCCCCC[n+]1ccc2ccccc2c1.O=S(=O)([N-]S(=O)(=O)C(F)(F)F)C(F)(F)F + CCCCCCO
101 kPa
Conditions | viscosity [mPa·s]
318.15 K, x2 = 0.2857 | 48.99 ± 0.65
338.15 K, x2 = 0.6854 | 6.58 ± 0.06

[Br-].[Li+] + CCCCCC[n+]1ccn(C)c1.N#C[S-] + CN1CCCC1=O
298.15 K, 101 kPa
Conditions | viscosity [mPa·s]
x2 = 0, x1 = 0.02735 | 2.37 ± 0.029
x2 = 0, x1 = 0.05202 | 3.192 ± 0.038
x2 = 0, x1 = 0.07626 | 4.329 ± 0.05
